Data on 7 molecules can be found in US20150284689A1, “STRATEGY FOR ENGINEERING VARIOUS 3D TISSUES, ORGANOIDS AND VASCULATURE” (THE REGENTS OF THE UNIVERSITY OF CALIFORNIA, priority 2012, published 2015).

Assay [1] concerns isolated ureteric bud, Wolffian duct bud. In words: isolated ureteric bud / Wolffian duct culture in biocompatible matrix, branching morphogenesis. The format is cell-based. To be noted: isolated UB/WD separated from MM, in Matrigel/collagen gel. From the text:
This isolated cell culture system can serve as a powerful assay system since it directly assesses the effect of soluble factors on cell morphogenesis and tubulogenesis.
As discussed herein, the disclosure provides methods and compositions whereby isolated budding epethelia (e.g., UBs, WDs, or UBs and WDs) can be co-cultured and stimulated by extrinsic factors to induce branching. These branching buds can then be combined with a tissue specific mesenchymal cell population to develop a desired tissue (e.g., combined with metanephric mesenchyme to produce kidney tissue). For example, whole isolated intact UB, WD, or UB and ND (cleanly separated from surrounding MM) can be induced to undergo branching morphogenesis in vitro in a manner similar to UB, WD, or UB and WD culture. Suspension of the isolated UBs, WDs, or UBs and WDs within, or on, a natural or artificial biocompatible substrate (e.g., Matrigel/collagen gel) and when exposed to a mixture of mesenchyme-cultured media augmented with GDNF, results in the isolated unbranched UB, WD, or UB and WD rapidly forming a polarized, extensively branched structure with an internal lumen. […] This modulation is typically branch-promoting, elongation promoting, or branch-inhibiting.
The culture system and methods of the disclosure provide toe ability to propagate the isolated UB, WD, or UB and WD in vitro through several generations. For example, isolated stem cells, UB, WD, or any combination thereof are cultured in vitro and induced to undergo branching morphogenesis in the presence of BSN-CM or pleiotrophin and GDNF or pleiotrphin, FGF1, and GDNF. After 8 days, the cultured bud is subdivided into approximate 3rds and re-suspended within a suitable biocompatible matrix (matrigel/collagen gel). This 2nd generation bud is further subdivided after another 8 days of culture and the 3rd generation bud is cultured for 8 days (thus yielding at least 9 subdivided buds from one progenitor bud) (e.g., see FIG. 9A-B). These subsequent clonal generations of cultured UB, WD, or UB and WD retain the ability of the progenitor bud to induce mesenchyme upon in vitro recombination. The buds also retained the capacity to form cohesive conduits with the mesenchymally-derived tubules that they induced. Thus, the disclosure provides the ability to develop and propagate a clonal, expanded, and long-lived colony of ureteric bud, Wolffian duct bud, or ureteric and Wolffian duct buds, derived from a single progenitor bud that retains the properties of the progenitor. Using similar techniques with the MM, it is possible to develop colonies of mesenchyme derived from a single progenitor mesenchyme that can then be recombined with a propagated UB, WD, or UB and WD.

The subject of a further assay is cultured mesenchyme. In words: cultured isolated mesenchyme, induction/differentiation. It counts as cell-based. To be noted: isolated mesenchyme cultured in vitro.
The next assay relates to MDCK and mIMCD cells. To be noted: three-dimensional cultures of MDCK and mIMCD cells; cited from earlier work.

Endostatin: in assay [1], the “effect on branching morphogenesis of isolated UB, WD” value (shortened to “effect on branching morphogenesis”) is “selectively inhibits branching of the UB, WD, or UB and WD”. Same read-out and setting: the value for FGF1: fibroblast growth factor-1 was “induced the formation of elongated stern cells, UB, ND, or any combination thereof branching stalks”. Consider “FGF2: growth factor present in UB/WD conditioned media”, for which the “effect on cultured mesenchyme (mesenchymal-to-epithelial transformation, survival, differentiation)” value in the assay on cultured mesenchyme is listed as “appear to promote survival but not differentiation of mesenchyme”. Take HGF: Hepatocyte growth factor: the “formation of branching tubular structures with lumens” value with MDCK and mIMCD cells was “induce the formation of branching tubular structures with lumens”. As for “LIF: leukemia-inhibitory factor, isolated from UB, WD conditioned media”, the “effect on cultured mesenchyme (mesenchymal-to-epithelial transformation, survival, differentiation)” value in the assay with cultured mesenchyme is on record as “induce mesenchymal-to-epithelial transformation of cultured mesenchyme”.

B1: FGF7: fibroblast growth factor-7 (protein, UniProt P21781 32-194, looked up)
Fibroblast growth factor 7: CNDMTPEQMATNVNCSSPERHTRSYDYMEGGDIRVRRLFCRTQWYLRIDKRGKVKGTQEMKNNYNIMEIRTVAVGIVAIKGVESEFYLAMNKEGKLYAKKECNEDCNFKELILENHYNTYASAKWTHNGGEMFVALNQKGIPVRGKKTKKEQKTAHFLPMAIT
B1: the “effect on branching morphogenesis” value in assay [1] is “induced amorphous buds displaying nonselective proliferation with little distinction between stalks and ampullae”.

B2: pleiotrophin: polypeptide in active morphogenetic fraction of BSN-CM; fibroblast proliferative and neurite outgrowth-promoting factor (protein, UniProt P21246 33-168, looked up)
Pleiotrophin: GKKEKPEKKVKKSDCGEWQWSVCVPTSGDCGLGTREGTRTGAECKQTMKTQRCKIPCNWKKQFGAECKYQFQAWGECDLNTALKTRTGSLKRALHNAECQKTVTISKPCGKLTKPKPQAESKKKKKEGKKQEKMLD
B2: the “effect on branching morphogenesis” value in assay [1] was “induces branching morphogenesis of the whole ureteric bud, Wolffian duct bud, or ureteric and Wolffian duct bud”.
